Data as given in a melting point compilation (Tetko et al.; mined from patent text by program, amines drawn as free bases though some values may be those of a salt).

| Structure (SMILES) | melting point |
| --- | --- |
| Cc1cc(O)nc2cc(Br)ccc12 | 275 to 276 °C |
| N#Cc1cnn(-c2ccccn2)c1N | 197 to 200 °C |
| Cc1cc(C)cc(P(=O)(O)O)c1 | 197 to 199 °C |
| CN1CCN(c2nn(CC3CC3)c3ccccc23)CC1 | 68 to 70 °C |
| CCn1ncc(OCc2ccc(C3CCCCC3)cc2)c(Cl)c1=O | 168 to 170 °C |
| NC(=O)c1snnc1C1CC1 | 163 °C |
| O=C(NCCCl)NC1OC(CO)C(O)C1O (stereo unspecified) | 166 to 168 °C |
| COc1ccc2cc(COC(C)(C(=O)O)C(F)(F)F)ccc2c1 (stereo unspecified) | 117 to 119 °C |
| CN1CCN(C(=O)OC2C3=C(SCCS3)C(=O)N2c2ccc3ccc(Cl)cc3n2)CC1 (stereo unspecified) | 192 °C |
| Cc1cc(Cl)cc(C(=O)NC2(C)CS(=O)(=O)C2)c1NC(=O)c1cc(OCC(F)(F)F)nn1-c1ncccc1Cl | > 250 °C |
| CCOC(=O)c1sc(N(C)C)c2c1CCc1cnn(C)c1-2 | 118 to 119 °C |
| CCN(CC)c1ccc(C2(c3ccc(N(C)C)cc3N(C)C)OC(=O)c3c(Cl)c(Cl)c(Cl)c(Cl)c32)cc1 (stereo unspecified) | 206 to 208 °C |
| CC(C)c1cc(C=CC(=O)Nc2ccc(C(=O)O)cc2)oc1C(C)C | 131 to 133 °C |
| CNC1=Nc2sc(Cl)cc2C(c2ccccc2Cl)=NC1 | 259 to 262 °C |
| O=C(O)c1cc2c(c(C(=O)O)c1)NCCC2 | 298 to 299 °C |
| Nc1ccn([C@@H]2C[C@H](CO)[C@@H](O)[C@H]2O)c(=O)n1 | 214 °C |

| Structure (SMILES) | melting point |
| --- | --- |
| COc1cc(C(=O)NS(=O)(=O)c2ccccc2C)ccc1Cc1c(Cl)n(C)c2cc(Cl)c(CCNC(=O)N(C)C)cc12 | 236 to 238 °C |
| O=C(O)CC(NC(=O)C1CCCN2C(=O)CCC(NC(=O)c3ccccc3)C(=O)N12)C(=O)COC(=O)c1c(Cl)cccc1Cl (stereo unspecified) | 126 to 130 °C |
| O=C1CCC(N2Cc3c(OCc4cc(CN5CCOCC5)no4)cccc3C2=O)C(=O)N1 (stereo unspecified) | 228 to 230 °C |
| NC(=O)OC[C@H](Cc1ccccc1)NC(=O)OCc1ccccc1 | 121 to 128 °C |
| CCc1ccc(CCC(=O)O)c(C(=O)O)c1 | 174 °C |
| CCc1nc(C)c(C(=O)Nc2cc(Oc3ccc4nc(NC(=O)C5CC5)cn4n3)ccc2F)o1 | 228 °C |
| CCc1cccc2c3c([nH]c12)C(CC)(CC(=O)O)OCC3=O (stereo unspecified) | 200 to 202 °C |
| COc1cc(Cc2nccc3c(OC(C)=O)cc(OC(C)=O)cc23)cc(OC)c1OC | 118 to 120 °C |
| CCC1Cc2c(C)ccc(NNC(=O)OC)c2O1 (stereo unspecified) | 98 to 100 °C |
| CCCCCCCCCCCCCCCC(O)C(N)CO (stereo unspecified) | 81 °C |
| CCC(Oc1cccc(C(F)(F)F)c1)C(=O)OC1CC(O)C=C2C=CC(C)C(CCC3CC(O)CC(=O)O3)C21 (mixture of isomers) | 135 to 137 °C |
| Cc1ccc(C2c3c(C)c(Br)c(C)c(C=O)c3OC2(C)C)cc1 (stereo unspecified) | 128 to 130 °C |
| Cc1nc2c(cc1NC(=N)N=C=O)CCCCC2CO[N+](=O)[O-] (stereo unspecified) | 120 to 121 °C |
| CCCCSc1nc(O)ns1 | 78 °C |
| CSC(CC(=O)O)c1ccc(C(F)(F)F)cc1 (stereo unspecified) | 106 to 108 °C |
| NC(=O)CCc1ccc(CNC(=O)[C@@H](CCCNC(N)=N[N+](=O)[O-])NC(=O)C(c2ccccc2)c2ccccc2)cc1 | 139 to 140 °C |

Results, then the compound that gave them:

| melting point | Structure (SMILES) |
| --- | --- |
| 82 to 84 °C | O=C1CCCC(C(Sc2ccccc2)c2ccccc2)O1 (stereo unspecified) |
| 222 to 224 °C | COc1cc(C(C)C)ccc1C1(NC(C)=O)C(=O)c2ccccc2C1=O |
| 113 °C | O=C(N1CCOCC1)C(Cl)(c1ccccc1)c1ccccc1 |
| 230 °C | CSc1nc2ccc(Br)cc2c(=O)[nH]1 |
| 85 to 86 °C | CCOC(=O)c1ccccc1-c1cc(-c2ccc(Cl)cc2Cl)no1 |
| 132 to 133 °C | Nc1nsnc1-c1ccc(Cl)cc1 |
| 139 to 140 °C | Cc1c(-c2ccncc2)sc(-c2ccncc2)c1C=O |
| 136 to 137 °C | COC(=O)c1cc(C(=O)N2CCCOCC2)c2cc(Cc3ccc(F)cc3)cnc2c1O |
| 147 to 149 °C | Cc1cc(C)c(NC(=O)N(Cc2ccc3c(c2)Cc2ccccc2-3)C2CCCCC2)c(C)c1 |
| 79 to 80 °C | CCOC(=O)c1cc(N=Cc2ccccc2)ccc1OC(C)=O |
| 111 to 112 °C | O=[N+]([O-])c1oc2ccc(CN3CCCC3)cc2c1-c1ccccc1 |
| 188 to 190 °C | O=C(Nc1cc(F)c(-c2cccnc2)c(F)c1)OCc1ccccc1 |
| 178 to 180 °C | FC(F)(F)c1ccc(-c2cc(Oc3ccc4cccnc4c3)ncn2)cc1 |
| 178 to 179 °C | COc1cc(Br)c2nc(-c3ccc(OC)c(F)c3)cc(Br)c2c1 |
| 192 to 193 °C | NC(=O)c1c(Cl)c(-c2ccccc2)n2c1CN(S(=O)(=O)c1ccc(Cl)c(Cl)c1)CC2 |
| 68 to 70 °C | CCCCCC(=O)c1cc(Cl)ccc1N(CC(=O)OC)S(=O)(=O)c1ccc(C)cc1 |
| 289 to 292 °C | CC(=O)N(c1ccc(N2CCN(C)CC2)cc1)c1ncc2c(n1)S/C(=C/c1cn(C(C)=O)c3ccccc13)C(=O)N2 |
| 231 to 233 °C | O=C(O)c1cccc(NCc2cccnc2)c1C(=O)O |
| 162 to 164 °C | Cc1cccc(COc2nn3c(-c4ccccc4)nnc3cc2C23CCC(CC2)C3)n1 |
| 177 to 179 °C | COc1cccc(C(=O)Nc2ccc3sc(C)nc3c2Cl)c1 |

| melting point | Structure (SMILES) |
| --- | --- |
| 162 to 164 °C | Cc1ccc(-c2nnc(N3CCCCCC3)nc2-c2ccc(C)cc2)cc1 |
| 119 to 121 °C | Cc1ccccc1-c1nc(-c2ccc(F)cc2)n[nH]1 |
| 127 to 129 °C | CCc1cccc2c1C(=O)N(Cn1nnn(-c3ccccc3)c1=S)S2(=O)=O |
| 222 to 223 °C | CC(Oc1ccc(-c2ccc(S(N)(=O)=O)cc2)cc1)C(O)CCc1cccnc1 (stereo unspecified) |
| 133 to 135 °C | CCN(CC)CCNc1ccc(CNc2ccccc2)c2sc3ccccc3c(=O)c12 |
| 168 to 171 °C | CC(C(=O)O)c1ccc(-c2nc3ccccc3o2)c(F)c1 (stereo unspecified) |
| 67 to 69 °C | Cc1ccc(C2=CC(O)CN(C)C2)cc1 (stereo unspecified) |
| 177 to 179 °C | COc1ccc(Nc2ncnc3cc(Cl)ccc23)cc1 |
| 143 to 145 °C | CCOC(=O)c1cc(=O)c2c(OCC(O)COc3ccc(C#N)c(OC)c3)cccc2o1 (stereo unspecified) |
| 98 to 100 °C | Fc1ccc(-c2c[nH]c3ccccc23)cc1 |
| 163 to 166 °C | COc1ccc(C=Cc2ccc(O)c(OC)c2)cc1 |
| 67 to 69 °C | COC(=O)CCC(=NOCc1ccc(OCc2nc(-c3ccco3)oc2C)c(OC)c1)c1ccccc1 |
| 239 to 242 °C | CC(=O)c1ccc(-n2c(-c3cc(-c4ccc(S(C)(=O)=O)cc4)c(N4CCOCC4)s3)nc3ccccc3c2=O)cc1 |
| 231 to 232 °C | O=c1nc(-c2ccccn2)sc2cc(Br)ccc12 |
| 225 °C | N#CCCn1c2ccccc2c2cc([N+](=O)[O-])ccc21 |
| 175 °C | CC(C)OC(=O)C1(c2onc(-c3ccc(O)cc3)c2-c2ccccc2)CC1 |
| 258 to 259 °C | CONC(=N)c1ccc(-c2ccc(-c3ccc(-c4ccc(C(=N)NOC)cc4)o3)o2)cc1 |
| 152 to 153 °C | CC1=NN(C(=O)NS(=O)(=O)c2ncccc2C(F)(F)F)C(C)(c2ccccc2)C1 (stereo unspecified) |
| 211 to 215 °C | COC(=O)C(C(=O)OC)c1ccc2c(c1)C(=O)c1cc3ccccc3cc1C2=O |
